Experimental findings from PubChem BioAssay AID1259407 (Chemical Carcinogenesis Research Information System (CCRIS), 2018) are described below.

The test system of the data set is CCRIS mutagenicity, Ames/micronucleus/aberration tests. Put plainly: CCRIS mutagenicity studies.

Molecules are shown by their SMILES. Active and inactive are the calls of the source. No rule for the calls is given here.

For `O=[O+][O-]`, the mutagenic call reads like this: (Test System: AMES SALMONELLA TYPHIMURIUM, Strain/Indicator: TA98, Metabolic Activation: NONE, Method: VAPOR CHAMBER) “inactive; negative”; (Test System: AMES SALMONELLA TYPHIMURIUM, Strain/Indicator: TA98, Metabolic Activation: RAT, LIVER, S-9, AROCLOR 1254, Method: VAPOR CHAMBER) “inactive; negative”; (Test System: AMES SALMONELLA TYPHIMURIUM, Strain/Indicator: TA100, Metabolic Activation: NONE, Method: VAPOR CHAMBER) “inactive; negative”; (Test System: AMES SALMONELLA TYPHIMURIUM, Strain/Indicator: TA100, Metabolic Activation: RAT, LIVER, S-9, AROCLOR 1254, Method: VAPOR CHAMBER) “inactive; negative”; (Test System: AMES SALMONELLA TYPHIMURIUM, Strain/Indicator: TA102, Metabolic Activation: NONE) “active; positive”; (Test System: AMES SALMONELLA TYPHIMURIUM, Strain/Indicator: TA102, Metabolic Activation: NONE, Method: VAPOR CHAMBER) “active; positive”. Also, the mutagenic call was “active; positive” (Test System: AMES SALMONELLA TYPHIMURIUM, Strain/Indicator: TA102, Metabolic Activation: RAT, LIVER, S-9, AROCLOR 1254 (10%)); “active; positive” (Test System: AMES SALMONELLA TYPHIMURIUM, Strain/Indicator: TA102, Metabolic Activation: RAT, LIVER, S-9, AROCLOR 1254, Method: VAPOR CHAMBER); “inactive; negative” (Test System: AMES SALMONELLA TYPHIMURIUM, Strain/Indicator: TA104, Metabolic Activation: NONE, Method: VAPOR CHAMBER); “inactive; negative” (Test System: AMES SALMONELLA TYPHIMURIUM, Strain/Indicator: TA104, Metabolic Activation: RAT, LIVER, S-9, AROCLOR 1254, Method: VAPOR CHAMBER); “inactive; negative” (Test System: AMES SALMONELLA TYPHIMURIUM, Strain/Indicator: TA1535, Metabolic Activation: NONE, Method: VAPOR CHAMBER); “inactive; negative” (Test System: AMES SALMONELLA TYPHIMURIUM, Strain/Indicator: TA1535, Metabolic Activation: RAT, LIVER, S-9, AROCLOR 1254, Method: VAPOR CHAMBER).
Take `Nc1ccc2ccccc2c1N=Nc1ccccc1`: the mutagenic call by setting is: (Test System: AMES SALMONELLA TYPHIMURIUM, Strain/Indicator: TA98, Metabolic Activation: HAMSTER, LIVER, S-9, AROCLOR 1254 (2.5-20%), Method: PREINCUBATION) “inactive; negative”; (Test System: AMES SALMONELLA TYPHIMURIUM, Strain/Indicator: TA98, Metabolic Activation: HAMSTER, LIVER, S-9, AROCLOR 1254, Method: STANDARD PLATE) “inactive; negative”; (Test System: AMES SALMONELLA TYPHIMURIUM, Strain/Indicator: TA98, Metabolic Activation: NONE, Method: STANDARD PLATE) “inactive; negative”; (Test System: AMES SALMONELLA TYPHIMURIUM, Strain/Indicator: TA98, Metabolic Activation: RAT, LIVER, S-9, AROCLOR 1254, Method: STANDARD PLATE) “inactive; negative”; (Test System: AMES SALMONELLA TYPHIMURIUM, Strain/Indicator: TA100, Metabolic Activation: HAMSTER, LIVER, S-9, AROCLOR 1254 (2.5-20%), Method: PREINCUBATION) “inactive; negative”; (Test System: AMES SALMONELLA TYPHIMURIUM, Strain/Indicator: TA100, Metabolic Activation: HAMSTER, LIVER, S-9, AROCLOR 1254, Method: STANDARD PLATE) “inactive; negative”. Also, the mutagenic call is, setting by setting: (Test System: AMES SALMONELLA TYPHIMURIUM, Strain/Indicator: TA100, Metabolic Activation: NONE, Method: STANDARD PLATE) “inactive; negative”; (Test System: AMES SALMONELLA TYPHIMURIUM, Strain/Indicator: TA100, Metabolic Activation: RAT, LIVER, S-9, AROCLOR 1254, Method: STANDARD PLATE) “inactive; negative”; (Test System: AMES SALMONELLA TYPHIMURIUM, Strain/Indicator: TA102, Metabolic Activation: HAMSTER, LIVER, S-9, AROCLOR 1254 (10%), Method: PREINCUBATION) “inactive; negative”; (Test System: AMES SALMONELLA TYPHIMURIUM, Strain/Indicator: TA102, Metabolic Activation: NONE, Method: PREINCUBATION) “inactive; negative”; (Test System: AMES SALMONELLA TYPHIMURIUM, Strain/Indicator: TA102, Metabolic Activation: RAT, LIVER, S-9, AROCLOR 1254 (10%), Method: PREINCUBATION) “inactive; negative”; (Test System: AMES SALMONELLA TYPHIMURIUM, Strain/Indicator: TA1535, Metabolic Activation: HAMSTER, LIVER, S-9, AROCLOR 1254, Method: STANDARD PLATE) “inactive; negative”. In addition, the mutagenic call is “inactive; negative” (Test System: AMES SALMONELLA TYPHIMURIUM, Strain/Indicator: TA1535, Metabolic Activation: NONE, Method: STANDARD PLATE); “inactive; negative” (Test System: AMES SALMONELLA TYPHIMURIUM, Strain/Indicator: TA1535, Metabolic Activation: RAT, LIVER, S-9, AROCLOR 1254, Method: STANDARD PLATE); “inactive; negative” (Test System: AMES SALMONELLA TYPHIMURIUM, Strain/Indicator: TA1537, Metabolic Activation: HAMSTER, LIVER, S-9, AROCLOR 1254, Method: STANDARD PLATE); “inactive; negative” (Test System: AMES SALMONELLA TYPHIMURIUM, Strain/Indicator: TA1537, Metabolic Activation: NONE, Method: STANDARD PLATE); “inactive; negative” (Test System: AMES SALMONELLA TYPHIMURIUM, Strain/Indicator: TA1537, Metabolic Activation: RAT, LIVER, S-9, AROCLOR 1254, Method: STANDARD PLATE); “inactive; negative” (Test System: AMES SALMONELLA TYPHIMURIUM, Strain/Indicator: TA1538, Metabolic Activation: HAMSTER, LIVER, S-9, AROCLOR 1254, Method: STANDARD PLATE). In addition, the mutagenic call is “inactive; negative” (Test System: AMES SALMONELLA TYPHIMURIUM, Strain/Indicator: TA1538, Metabolic Activation: NONE, Method: STANDARD PLATE); “inactive; negative” (Test System: AMES SALMONELLA TYPHIMURIUM, Strain/Indicator: TA1538, Metabolic Activation: RAT, LIVER, S-9, AROCLOR 1254, Method: STANDARD PLATE); “active; positive. reevaluation of results: equivocal” (Test System: MOUSE LYMPHOMA, Strain/Indicator: L5178Y (TK+/TK-), Metabolic Activation: NONE, Method: SUSPENSION/PLATE).
